Tests used:
[1] = tested on: ovariectomized estrogen treated rat; test: Lordotic response in the ovariectomized estrogen treated rat (female sexual behavior); type: in vivo
Experimental: For initial preclinical evaluation of the effects on sexual behavior, the following study was conducted to evaluate the effects of test compound on lordotic response in the ovariectomized estrogen treated rat.
Animals: Long-Evans hooded female rates (100-125 g) male Sprague-Dawley rats (150-175 g) were obtained from Charles River Breeding laboratories.
Chemicals: Progesterone (Cat. # P-0130; Lot 128H0456) and estrone (Cat # E-9750; Lot 28H0372) were purchased from Sigma Chemical Company and quinelorane Cat # Q-110; Lot PRF-694A) and bupropion (Cat # B-102; BS-11-10) were purchased from Research Biochemicals Incorporated. Test compound (Lot # D5-91B) was synthesized at SK Biopharmaceutical Center, Fairfield, N.J. Estrone and progesterone were dissolved in propylene glycol (Fisher Scientific P355-1; Lot # 992032). test compound, quinelorane and bupropion were dissolved in sterile saline (0.9% NaCl, Abbott Laboratories Lot #25-270-DK).
Protocol for ovariectomy: Female rats (108-120 g) were anesthetized with 100 mg/kg s.c. ketamine (Ketaset 100 mg/ml, Ford Dodge Laboratories, lot #440339) and 7 mg/kg s.c. xylazine (Rompun 20 mg/ml, Bayer Corporation, lot #26050E). A midline incision (1 cm) on the ventral surface was made starting approximately 0.5-1 cm from the genitalia. A second incision (1 cm) was through the linea alba connecting fascia for abdominal muscles. The body of the uterus was located near the pubic bone and retracted through the abdominal incision. The uterine horns with ovaries were retracted through the abdominal wall. Each uterine horn was ligated near the uterine body bisected and removed. The abdominal, wall was closed with 2 sutures and the skin incision was closed with either wound clips or sutures. The rats were kept warm until they recovered from the anesthesia. OVX=ovariectomized.
Accelerated light cycle (10:14): Lights were on from 1 am to 11 am. During dark phase, the room was kept dark except for lighting from red lights needed to observe the behaviors.
Behavior observation arenas: Side walls (45×60 cm) and top (60×60 cm) with hole (15×15 cm) were constructed of clear Lucite plastic and bonded together with adhesive. The base was made from stainless steel grating and was placed over bedding material. Arenas and base were washed between experiments.
Protocol for female sexual behavior: At least 2-3 hours into the dark phase of the lighting cycle, male rats are placed into the behavior arenas and allowed to acclimate for 15 minutes prior to testing. Prior to the testing of experimental animals, the males are exposed to sexually receptive, OVX rats treated with estrone 0.25 mg s.c. 48 hours prior to test and progesterone 1 mg s.c. 6 hours prior to test. When active mating occurs, the receptive females are removed. The test female (OVX treated only with estrone 0.25 mg 48 hours prior to test) is added to the arena with the activated male. The number of lordosis responses for 15 mounts is recorded (lordosis is defined as a downward arching of the back to expose genitalia).
During this first test period, only female rats with a L/M of 4/15 or lower were treated with test drug and 90 minutes later the rats were retested as previously for 15 mounts. This exclusion criterion is used to lower the variance due to rats that become overly receptive to estrone. The index of change is the change in L/M between test 2 and test 1. Statistical comparisons of the treatment groups were made using ANOVA followed by a Dunnett's test for multiple treatment group designs and a Student's t test for single control and treatment designs with the minimum level of significance set at p<0.05.

patients = details: Foreman 1995; cited from earlier work
humans = test: Placebo controlled antidepressant trial in humans, analysis of post trial questionnaires; type: in vivo, human; details: mostly in males
From the text: This was a large placebo controlled study where the test compound was compared with a conventional SSRI antidepressant (Paroxetine). […] This study was not designed to see or evaluate this property of the compound and so future studies directed specifically to assess this property of test compound in humans will be performed.

rats and mice = test: Locomotor activity in rats and mice; type: in vivo; details: at higher dose
From the text: Although the mechanism of action of test compound is unknown, this pharmacological profile may involve activation of central catecholaminergic pathways.

SMILES | Lordotic response compared to vehicle treatment ([1]; 30 mg/kg s.c.) | Change in Lordotic Response ([1]; 30 mg/kg s.c., change in L/M, * significantly different from vehicle (Student's test)) | Effect on sexual response in patients (patients) | Lordotic response compared to vehicle treatment ([1]; 25 μg/kg s.c.) | Change in Lordotic Response ([1]; 25 μg/kg s.c., change in L/M, * significantly different from vehicle (Student's test)) | Change in Lordotic Response ([1]; 10 mg/kg s.c., change in L/M between test 2 and test 1, retest 90 minutes after drug, OVX estrone treated female rats) | Change in Lordotic Response ([1]; 30 mg/kg s.c., change in L/M between test 2 and test 1, retest 90 minutes after drug, * significantly different from vehicle (ANOVA, Dunnett's test)) | Change in Lordotic Response ([1]; 100 mg/kg s.c., change in L/M between test 2 and test 1, retest 90 minutes after drug, * significantly different from vehicle (ANOVA, Dunnett's test)) | Lordotic response compared to vehicle treatment ([1]; 30 and 100 mg/kg s.c.) | Lordotic behavior in the female rat, dose relation ([1]; doses of 10, 30 and 100 mg/kg s.c.) | Dose of peak effect on interest in sex and ability to have an orgasm (humans) [mg per day] | Effect on interest in sex and ability to have an orgasm (post trial questionnaires) (humans; placebo controlled study with Paroxetine comparator) | Effects on locomotor activity (rats and mice)
CC(NC(C)(C)C)C(=O)c1cccc(Cl)c1 (centres unmarked) [Bupropion, bupropion, reference compound] | significant increases in lordotic response | 0.478 +/− 0.073 * | augment sexual response in patients |  |  |  |  |  |  |  |  |  | 
CCCN1CCC[C@@H]2Cc3nc(N)ncc3C[C@H]21 [Quinelorane, quinelorane, reference compound] |  |  | augment sexual response in patients | significant increases in lordotic response | 0.593 +/− 0.056 * |  |  |  |  |  |  |  | 
NC(=O)OC[C@H](N)Cc1ccccc1 [test compound, O-carbamoyl-(D)-phenylalaninol] |  |  |  |  |  | 0.338 +/− 0.049 | 0.476 +/− 0.049 * | 0.559 +/− 0.059 * | significantly greater lordotic response than vehicle treatment | dose-related increases in lordotic behavior | 400 | increasing interest in sex and in ability to have an orgasm | stimulant-like effects on locomotor activity

Reference: patent US8552060B2, “Methods for treatment of sexual dysfunction” (SK Biopharmaceuticals Co., Ltd., priority 2005, dated 2013)
